Results taken from patent US20260060982A1, “USE OF BTK INHIBITOR AND SINGLE-DOSE DRUG” (HUBEI BIO-PHARMACEUTICAL INDUSTRIAL TECHNOLOGICAL INSTITUTE …, priority 2023, published 2026).

Columns and labels:
[1] = system: collagen-induced arthritis in DBA/1 mice; experiment: Collagen-induced arthritis (CIA) model in mice; format: in vivo; settings: for average body weight: after day 33
Method: Clinical symptoms of arthritis were induced in mice by injecting collagen emulsion into the tail of mice. The specific steps were as follows:
DBA/1 mice were randomly divided into 6 groups, with 10 mice in each group except the blank control group (5 mice). […] The day of the first immunization was recorded as day 0, and the subsequent days were marked in sequence. DBA/1 mice were anesthetized with isoflurane and injected subcutaneously with 50 μl of the prepared collagen emulsion (containing 200 μg of CII) at the tail (2 cm to 3 cm from the base of the tail). On day 21, the same volume of collagen emulsion was injected into the tail in the same way.
On day 28, when the average clinical score reached 1 to 2, the mice were randomly redivided into 4 treatment groups (10 mice per group) and a blank vehicle control group (10 mice per group) according to body weight and score. […] The administration was performed once daily for 14 days by gavage at 10 mL/kg. After the administration, the clinical score curve of each animal in each group was analyzed to calculate the area under the curve (AUC). The inhibition rate of each administration group relative to the blank vehicle control was calculated based on the average AUC between groups.
Clinical observation: From 7 days before immunization to 21 days after immunization, the basic health status and weight changes of DBA/1 mice were observed daily (recorded twice a week). After day 22, the health status, disease incidence, and weight changes of the mice were observed daily (recorded every two days) until the end of the experiment.
When mice began to develop symptoms of arthritis (clinical symptoms of arthritis appeared), they were scored on a scale from 0 to 4 based on the severity of the lesions (redness, swelling, joint deformation), with a maximum score of 4 for each limb and a maximum score of 16 for each animal. The scoring was performed at least three times a week.
Pathology: On day 42, mice were euthanized. The two hind limbs of the mice were taken, soaked in 10% formalin solution, decalcified with formic acid solution, embedded in paraffin, sectioned, stained with hematoxylin-eosin (HE), and observed under a microscope. The degree of joint damage was evaluated from four aspects: inflammatory cell infiltration, pannus formation, cartilage damage, and bone resorption, and scored on a scale from 0 to 4.

[2] = system: IgM-induced calcium signaling in RAMOS cells; experiment: Antagonism of IgM-induced calcium signaling in RAMOS cells (FLIPR); format: cell-based; settings: Homo sapiens, Fluo-4D dye
Method: The specific test steps were as follows:
A. Ramos cells (ECACC) were seeded in a 384 experimental plate using cell culture medium (RPMI 1640 medium supplemented with 10% fetal bovine serum) at a density of 5×10^6 cells/mL, 20 μL per well.
C. The cell plate and the compound plate were placed into FLIPR. 10 μL was transferred from the compound plate by the FLIPR instrument and added to the cell plate. The cell plate was removed and incubated in a 37° C. incubator for 1 h.
D. One hour later, 40 μL of Fluo-4D dye (Life Technologies, formulated as 0.5× with 40 mL of HBSS and HEPES buffer) was added to the cell plate and incubated at 37° C. for 50 min.
E. 10 μL of IgM at 8×EC80 concentration was added, and the plate was read using FLIPR.
F. The IC50 results of the compounds were analyzed using EXCEL and Prism statistical software.

BTK = BTK (Homo sapiens, UniProt Q06187); experiment: BTK target occupancy in peripheral blood mononuclear cells (ELISA), Phase I single-dose trial; format: in vivo; parameters: endogenous in cells; host or cells: human peripheral blood mononuclear cells (PBMCs) of trial subjects, lysate
Method: The receptor occupancy of compound (I) in human peripheral blood mononuclear cell lysate was detected by ELISA. The analysis method was to perform relative quantitative determination of BTK in human peripheral blood mononuclear cells (PBMCs) using ELISA.
PBMC lysate containing BTK was incubated with compound (I), with a control containing no compound (I), then incubated with biotinlated compound (I), and then added to a well plate pre-coated with streptavidin. When compound (I) was incubated with PBMC lysate, it was bound to BTK, thereby preventing BTK from binding to biotinylated compound (I). Since the complex cannot bind to the well plate, it was difficult to generate a response signal.
Rabbit anti-BTK primary antibody incubated with the above samples would bind to BTK. Tetramethylbenzidine (TMB) was the substrate of HRP coupled to the anti-rabbit secondary antibody. […] After color development, the absorbance was measured at a wavelength of 450 nm. […] The content of free BTK was proportional to the absorbance. In this way, the content of BTK can be indirectly detected. […]
The analysis was performed using the Per-protocol set. The differences in BTK target occupancy rate among the different dose groups was analyzed using the Chi-Square test; and the relationship between dose, plasma concentration, and BTK target occupancy rate was analyzed using Logistic Regression.

BTK, sequence (Q06187 whole entry): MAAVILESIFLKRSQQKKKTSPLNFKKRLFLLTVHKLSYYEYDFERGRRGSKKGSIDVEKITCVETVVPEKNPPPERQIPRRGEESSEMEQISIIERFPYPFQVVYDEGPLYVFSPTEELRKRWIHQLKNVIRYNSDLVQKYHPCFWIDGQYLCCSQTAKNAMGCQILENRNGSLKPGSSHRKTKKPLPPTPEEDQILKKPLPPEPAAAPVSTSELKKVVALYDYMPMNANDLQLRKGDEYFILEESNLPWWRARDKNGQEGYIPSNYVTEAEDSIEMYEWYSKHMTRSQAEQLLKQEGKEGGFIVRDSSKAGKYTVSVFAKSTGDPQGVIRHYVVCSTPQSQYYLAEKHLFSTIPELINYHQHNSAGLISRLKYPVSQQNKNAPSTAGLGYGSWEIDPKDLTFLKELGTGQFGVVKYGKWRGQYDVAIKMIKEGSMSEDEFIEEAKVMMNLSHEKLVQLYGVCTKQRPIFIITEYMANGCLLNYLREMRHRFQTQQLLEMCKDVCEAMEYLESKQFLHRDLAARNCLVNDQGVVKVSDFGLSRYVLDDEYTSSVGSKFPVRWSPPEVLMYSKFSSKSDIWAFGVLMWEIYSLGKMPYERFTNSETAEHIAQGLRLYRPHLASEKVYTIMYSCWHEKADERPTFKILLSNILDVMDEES

## C=CC(=O)N1CCC[C@@H](n2nc(-c3ccc(Oc4ccccn4)cc3)c3c(N)n[nH]c(=O)c32)C1 [compound (I), (R)-1-(1-acryloylpiperidin-3-yl)-4-amino-3-(4-(pyridin-2-yloxy)phenyl)-1H-pyrazolo[3,4-d]pyridazin-7(6H)-one]
[1]; 1 mg/kg once daily by gavage for 14 days
  inflammation inhibition rate (AUC of clinical score vs blank vehicle control): 65.5%
[1]; 1 mg/kg
  average body weight: remained basically unchanged
[1]; 3 mg/kg once daily by gavage for 14 days
  inflammation inhibition rate (AUC of clinical score vs blank vehicle control): 82.4%
[1]; 3 mg/kg
  average body weight: increased
[1]; 10 mg/kg once daily by gavage for 14 days
  inflammation inhibition rate (AUC of clinical score vs blank vehicle control): 83.9%
[1]; 10 mg/kg
  average body weight: increased
[1]; three dose groups (1, 3, and 10 mg/kg), day 42
  pathology of foot joint bone tissue: only mild inflammation
[2]
  IC50: 0.055 ± 0.00334 µM
BTK; single administration of 10 mg
  maximum BTK target occupancy rate: 58.93%
BTK; single administration of 25 mg or above
  maximum BTK target occupancy rate: ~100%
